Drawing on patent US20230192705A1, “SHP2 INHIBITORS, COMPOSITIONS AND USES THEREOF” (Betta Pharmaceuticals Co., Ltd, priority 2020, published 2023), this text covers IC50 for ten compounds.

The structures appear in SMILES notation. Where two headings read alike, the source gives them in different places.

As a reminder, the IC50 is the midpoint of a concentration-inhibition curve.

One test concerns the target T1, SHP2 (Homo sapiens, UniProt Q06124).
T1 sequence (Q06124 1-593): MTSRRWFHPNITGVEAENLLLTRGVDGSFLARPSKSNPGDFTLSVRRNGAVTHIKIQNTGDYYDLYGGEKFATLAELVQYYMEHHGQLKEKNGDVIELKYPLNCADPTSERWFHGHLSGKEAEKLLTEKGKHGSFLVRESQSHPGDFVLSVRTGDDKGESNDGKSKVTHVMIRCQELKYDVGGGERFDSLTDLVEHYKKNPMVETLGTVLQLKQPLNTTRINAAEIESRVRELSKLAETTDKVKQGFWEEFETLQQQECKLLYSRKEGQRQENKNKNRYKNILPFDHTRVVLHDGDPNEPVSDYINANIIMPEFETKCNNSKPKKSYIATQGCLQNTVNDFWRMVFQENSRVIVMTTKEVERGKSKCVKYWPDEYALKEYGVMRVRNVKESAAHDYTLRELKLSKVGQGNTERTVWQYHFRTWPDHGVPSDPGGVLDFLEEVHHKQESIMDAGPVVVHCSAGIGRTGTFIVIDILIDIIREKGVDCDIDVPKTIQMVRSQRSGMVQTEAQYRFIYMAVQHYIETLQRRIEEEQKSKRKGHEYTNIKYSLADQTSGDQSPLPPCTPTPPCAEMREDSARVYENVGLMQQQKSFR
Briefly: SHP2 allosteric inhibitor enzyme activity assay (DiFMUP fluorescence). Format: biochemical. The method in brief: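 SHP2 activated by 0.5 μM IRS1_pY1172(dPEG8)pY1222 peptide, 0.2 ng enzyme per well, 1 h at room temperature with compound (1 μM top, 3-fold series), then DiFMUP substrate 1 h. Buffer: 60 mM HEPES, 75 mM NaCl, 75 mM KCl, 0.05% BRIJ-35, 1 mM EDTA, 5 mM DTT. Fluorescence ex 340/em 450 nm; IC50 by variable-slope fit.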

For a further test, the target named is T2, hERG channel (Homo sapiens, UniProt Q12809).
T2 construct: expressed in transfected cells; host or cells: HEK-293
Nature of the test: Patch clamp assay to test the effect of compound on hERG channel. The class given is cell-based. As to conditions: manual patch clamp, HEK 293 cells expressed with hERG, concentration for half maximum effect. As for the experimental part:
10 mL extracellular solution was used to dilute the stock solution, making the final concentrations of test compound were 0.3 μM, 1 μM, 3 μM, 10 μM and 30 μM.
The solubility of compound was visually observed.
The cell line was derived from HEK-293 cells, and grown in a humidified environment at 37° C. under 5% CO2, using the media formulation below. The cell line should not be allowed to exceed 80% confluence within the culture vessel to prevent contact inhibition causing senescence and should thus be passaged every 3/4 days using a seeding density of 2*10^6 cells per T175 flask. Cell lines were be pre-washed with phosphate buffered saline before harvesting with Trypsin/EDTA and seeded into new flasks.
HEK 293 cells expressed with hERG were plated on cover slips overnight with the cell density less than 50% of confluence. Cells used for electrophysiological study were transferred to a small cell bath (1 mL) mounted on the stage of an inverted microscope (Diaphot, Nikon) and were perfused with external solution containing (in mM) 130 NaCl, 4 KCl, 1.8 CaCl2), 1 MgCl2, 10 glucose and 10 HEPES (pH 7.4 with NaOH), the perfusion rate was 4 mL/min. The internal pipette solution contained (in mM) 130 KCl, 1 MgCl2, 5 ethylene glycol-bis(baminoethyl ether)-N,N,N8,N8-tetraacetic acid, 5 MgATP and 10 HEPES (pH 7.2 with KOH). An HEKA EPC-10 patch-clamp amplifier and PATCHMASTER acquisition program were used to record membrane currents (HEKA Instruments IncD-67466 Lambrecht/Pfalz Germany). All experiments were performed at room temperature (22-23° C.).
The Model P-97 micropipette puller (Sutter Instrument Company, One Digital Drive, Novato, Calif. 94949) was used to pull glass patch pipettes (BF150-86-10) in all experiments.
The experiments were initiated with a 2 min vehicle control period after forming a whole cell configuration with less 5% run-down in 5 min and the tail currents in the report were at least greater than 500 pA. After a 2 min vehicle control period, the perfusion was switched to the reservoir containing the compound at the first concentration. The same procedure was repeated 3-5 times so that each cell was exposed to 4-6 escalating concentrations of compound. The time courses for block and unblock of hERG during compounds exposure and washout were continuously recorded.
The peak tail of hERG was generated by applying 2-sec depolarizing every 12 sec steps from a holding potential of −80 mV, the peak of tail currents were measured at a 5-sec repolarizing pulse at −50 mV.
hERG peak tail currents were directly measured from a 5 sec repolarization pulse at −50 mV. The fraction of control current was plotted as a function of logarithm of compound concentration. To determine the concentration of compound for halfmaximum effect, the concentration-response curve was fitted by Hill equation as shown follow.
where Y is the observed value, Bottom is the lowest observed value (0), Top is the highest observed value (1), and the Hillcoefficient gives the largest absolute value of the slope of the curve.
Data were analyzed by a combination of PATCHMASTER ((HEKA Instruments IncD-67466 Lambrecht/Pfalz Germany) and Origin (OriginLab Corporation, Northampton, Mass.) software programs.
Data were expressed as mean±SEM.

For the next test, the system named is leukemia MV-4-11 cell. Nature of the test: Cell proliferation assay (CellTiter-Glo), MV-4-11. Particulars: Homo sapiens, MV4-11, MV-4-11, 120 hrs, CTG, read-out: Compound on MV-4-11 cell IC50. Format: cell-based. As to the method: (§1) The effects of the compounds on the proliferation of leukemia MV-4-11 cell and lung cancer NCI-H358 cell were evaluated by in vitro cell test. The assay used in this study was the CELL TITER-GLO (CTG) luminescence assay, which can detect the number of living cells by quantitative determination of ATP. Because ATP is involved in a variety of enzymatic reactions in vivo and is an indicator of the metabolism of living cells, its content can directly reflects the number and state of cells. During the experiment, Celltiter-Glo™ reagent was added to the cell culture medium to measure the luminescence value. The luminescence value was proportional to the amount of ATP, which in turn was positively correlated with the number of living cells. Therefore, ATP content can be used to detect cell viability.
A bottle of MV-4-11 cells in logarithmic growth phase was taken, the cells were collected, centrifuged, resuspend, counted, and then inoculated into 96-well Microplate (Corning #3917), with 4000 cells inoculated in each well. The plates were placed in an incubator at 37° C. and 5% CO2 for 24 hrs culture, and the compounds of the invention were added for conducting.
(§2) An appropriate amount of the compound of the invention was taken for cell treatment, and the final concentration of the compound from high to low was 1000 nM, 333.3 nM, 111.1 nM, 37.04 nM, 12.35 nM, 4.115 nM, 1.372 nm, 0.4572 nM, 0.1524 nM, 0 nM, respectively. The orifice plate was cultured in an incubator at 37° C. and 5% CO2. Only adding medium without adding cell hole was set as blank group. Compound concentration of 0 nM group was zero control group.
After cultured for 120 hrs, MV-4-11 cells were added with 50 μL CellTiter-Glo® Luminescent cell viability assay solution in each well, gently shaken for 2 mins, and incubated at room temperature for 10 mins. The detection values of each well were read on the multi-functional microplate reader.
(§3) The inhibition rate is calculated according to the luminous value reading,
(§4) Inhibition rate %=(1−(administration group value−blank group value)/(control group value−blank group value)*100
(§5) The log (inhibitor) vs. response variable slope of GraphPad Prism was used to fit the dose-response curve and calculate the IC50 of compounds inhibiting cell proliferation.
On the technique in general: Cellular ATP, detected with luciferase, serves as a proxy for viable cell number.

Test [1] concerns lung cancer NCI-H358 cell. Nature of the test: Cell proliferation assay (CellTiter-Glo), NCI-H358. The class given is cell-based. Particulars: Homo sapiens, NCI-H358, 96 hrs, CTG, read-out: Compound on NCI-H358 cell IC50. As for the experimental part:
as §1
A bottle of NCI-H358 cells in logarithmic growth phase was taken, the cells were digested and resuspend, counted, and then the cell density was adjusted. After that, the cells were inoculated into a 96-well Ultra-Low Attachment Microplate (Corning #3474), 2000 cells were inoculated in each well, and the well plate was placed in an incubator at 37° C. and 5% CO2, and the compounds of the invention were added for conducting.
as §2
NCI-H358 cells were cultured for 96 hrs, then 50 μL CellTiter-Glo® Luminescent cell viability assay solution was added to each well, and the cells were gently shaken for 2 mins, and incubated at room temperature for 10 mins. The cell reaction system was transferred to 96-well Microplate (Corning #3917). The detection values of each well were read on the multi-functional microplate reader.
as §3, §4, §5

T2 sequence (Q12809 whole entry): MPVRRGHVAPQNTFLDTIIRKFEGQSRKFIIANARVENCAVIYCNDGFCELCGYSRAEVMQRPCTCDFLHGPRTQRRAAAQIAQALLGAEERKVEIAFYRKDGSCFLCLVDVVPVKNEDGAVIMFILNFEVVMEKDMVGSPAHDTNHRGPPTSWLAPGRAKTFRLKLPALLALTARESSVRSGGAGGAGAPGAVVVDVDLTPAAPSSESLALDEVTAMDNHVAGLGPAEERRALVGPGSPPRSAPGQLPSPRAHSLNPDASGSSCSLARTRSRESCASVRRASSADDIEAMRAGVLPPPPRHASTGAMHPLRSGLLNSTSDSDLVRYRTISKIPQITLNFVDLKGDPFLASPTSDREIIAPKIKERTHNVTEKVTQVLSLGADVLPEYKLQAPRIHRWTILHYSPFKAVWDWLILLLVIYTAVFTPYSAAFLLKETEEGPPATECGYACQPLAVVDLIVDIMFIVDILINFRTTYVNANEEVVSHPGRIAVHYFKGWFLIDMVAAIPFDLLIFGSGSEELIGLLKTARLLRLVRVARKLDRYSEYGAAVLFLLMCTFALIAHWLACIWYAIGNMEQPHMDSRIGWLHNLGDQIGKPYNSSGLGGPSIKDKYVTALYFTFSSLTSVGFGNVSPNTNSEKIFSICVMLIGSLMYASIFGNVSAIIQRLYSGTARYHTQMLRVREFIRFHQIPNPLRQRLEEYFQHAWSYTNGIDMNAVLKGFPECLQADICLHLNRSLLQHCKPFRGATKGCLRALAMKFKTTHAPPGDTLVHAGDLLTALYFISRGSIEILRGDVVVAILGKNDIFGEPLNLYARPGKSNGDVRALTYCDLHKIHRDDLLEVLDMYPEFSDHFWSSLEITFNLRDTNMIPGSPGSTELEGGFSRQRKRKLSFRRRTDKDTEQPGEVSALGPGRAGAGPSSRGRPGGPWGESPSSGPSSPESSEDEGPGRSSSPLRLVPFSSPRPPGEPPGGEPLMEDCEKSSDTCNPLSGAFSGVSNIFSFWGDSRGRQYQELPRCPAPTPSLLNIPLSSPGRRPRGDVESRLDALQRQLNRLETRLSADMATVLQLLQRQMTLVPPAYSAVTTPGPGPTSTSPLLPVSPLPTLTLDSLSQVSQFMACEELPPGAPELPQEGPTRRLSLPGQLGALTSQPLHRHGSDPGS

`N[C@@H]1c2ccccc2CC12CCN(c1nc3[nH]nc(C4(c5cccc(-n6cccn6)c5)CC4)c3c(=O)[nH]1)CC2` [Example 38, (S)-3-(1-(3-(1H-pyrazol-1-yl)phenyl)cyclopropyl)-6-(1-amino-1,3-dihydrospiro[indene-2,4′-piperidin]-1′-yl)-1,5-dihydro-4H-pyrazolo[3,4-d]pyrimidin-4-one]: the IC50 at SHP2 (numeric values) came to 3.1 nM; at hERG channel it was 14200 nM.
As to `N[C@@H]1c2ccccc2CC12CCN(c1nc3[nH]nc(C4(c5ccccc5)CCC4)c3c(=O)[nH]1)CC2` [Example 90], the IC50 against SHP2 (class symbols) was no more than 20 nM; on hERG channel it was 4950 nM.
Taken in the same sequence, the figures for `COc1ccc(C2(c3n[nH]c4nc(N5CCC6(CC5)Cc5ccccc5[C@H]6N)[nH]c(=O)c34)CC2)cc1OC` [Example 221, (S)-6-(1-amino-1,3-dihydrospiro[indene-2,4′-piperidin]-1′-yl)-3-(1-(3,4-dimethoxyphenyl)cyclopropyl)-1,5-dihydro-4H-pyrazolo[3,4-d]pyrimidin-4-one] were no more than 20 nM and greater than 30000 nM.
As to `N[C@@H]1c2ccccc2CC12CCN(c1nc3[nH]nc(C4(n5cccn5)CC4)c3c(=O)[nH]1)CC2` [Example 255, (S)-3-(1-(1H-pyrazol-1-yl)cyclopropyl)-6-(1-amino-1,3-dihydrospiro[indene-2,4′-piperidin]-1′-yl)-1,5-dihydro-4H-pyrazolo[3,4-d]pyrimidin-4-one], the IC50 at hERG channel was greater than 30000 nM.
For `N[C@@H]1c2ccccc2CC12CCN(c1nc3[nH]nc(C4=CCCc5nc(Cl)ccc54)c3c(=O)[nH]1)CC2` [Example 139, (S)-6-(1-amino-1,3-dihydrospiro[indene-2,4′-piperidin]-1′-yl)-3-(2-chloro-7,8-dihydroquinolin-5-yl)-1,5-dihydro-4H-pyrazolo[3,4-d]pyrimidin-4-one], the IC50 was found to be 1.6 nM at SHP2 (numeric values), 2.8 nM with leukemia MV-4-11 cell (numeric values) and 2 nM in test [1] (numeric values).
For `C#Cc1cccc(C2(c3n[nH]c4nc(N5CCC6(CC5)Cc5ccccc5[C@H]6N)[nH]c(=O)c34)CC2)c1` [Example 222, (S)-6-(1-amino-1,3-dihydrospiro[indene-2,4′-piperidin]-1′-yl)-3-(1-(3-ethynylphenyl)cyclopropyl)-1,5-dihydro-4H-pyrazolo[3,4-d]pyrimidin-4-one], the IC50 (on SHP2 (class symbols); in the test with leukemia MV-4-11 cell (class symbols); in test [1] (class symbols)) was no more than 20 nM throughout.
Take `CCC(c1ccccc1)c1n[nH]c2nc(N3CCC4(CC3)Cc3ccccc3[C@H]4N)[nH]c(=O)c12` (stereo partly drawn) [Example 217, 6-((S)-1-amino-1,3-dihydrospiro[indene-2,4′-piperidin]-1′-yl)-3-(1-phenylpropyl)-1,5-dihydro-4H-pyrazolo[3,4-d]pyrimidin-4-one]: the IC50 against SHP2 (class symbols) is no more than 20 nM; at hERG channel, 540 nM.
On to `Cc1cccc(C2(c3n[nH]c4nc(N5CCC6(CC5)Cc5ccccc5[C@H]6N)[nH]c(=O)c34)CC2)c1` [Example 10, (S)-6-(1-amino-1,3-dihydrospiro[indene-2,4′-piperidin]-1′-yl)-3-(1-(m-tolyl)cyclopropyl)-1,5-dihydro-4H-pyrazolo[3,4-d]pyrimidin-4-one], for which the IC50 was 0.9 nM at SHP2 (numeric values), no more than 20 nM with leukemia MV-4-11 cell (class symbols) and no more than 20 nM in test [1] (class symbols).
As to `N[C@@H]1c2ccccc2CC12CCN(c1nc3[nH]nc(C4=CCOc5cc(F)ccc54)c3c(=O)[nH]1)CC2` [Example 115, (S)-6-(1-amino-1,3-dihydrospiro[indene-2,4′-piperidin]-1′-yl)-3-(7-fluoro-2H-chromen-4-yl)-1,5-dihydro-4H-pyrazolo[3,4-d]pyrimidin-4-one], the IC50 against SHP2 (class symbols) was no more than 20 nM; in the test with leukemia MV-4-11 cell (numeric values) it was 1.4 nM; in test [1] (numeric values), 1.2 nM.
With `N#Cc1ccc2c(c1)CCC=C2c1n[nH]c2nc(N3CCC4(CC3)Cc3ccccc3[C@H]4N)[nH]c(=O)c12` [Example 122, (S)-5-(6-(1-amino-1,3-dihydrospiro[indene-2,4′-piperidin]-1′-yl)-4-oxo-4,5-dihydro-1H-pyrazolo[3,4-d]pyrimidin-3-yl)-7,8-dihydronaphthalene-2-carbonitrile], the IC50 at SHP2 (numeric values) stood at 1.1 nM; in the test on leukemia MV-4-11 cell (numeric values) it was 2.1 nM; in test [1] (numeric values), 1.1 nM.
